Laboratory results taken from patent publication US9029337B2, “Modulation of factor 7 expression” (Isis Pharmaceuticals, Inc., priority 2007, dated 2015).

What was measured:
Type in all cases: in vivo, mouse
murine Factor 7 mRNA = experiment: Liver Factor 7 mRNA in the FeCl3 induced venous thrombosis model; settings: Example 15
Protocol: (§1) Three groups of BALB/c mice were injected with 25 mg/kg, 37.5 mg/kg, or 50 mg/kg of ISIS 403102, administered subcutaneously twice a week for 3 weeks. Two control groups of BALB/c mice were treated with PBS, administered subcutaneously twice a week for 3 weeks. Thrombus formation was induced with FeCl3 in half of the mice while the rest of the mice were assayed for tail bleeding. Two days after receiving the last dose of ISIS 403102 or PBS, mice were anesthetized with 150 mg/kg ketamine mixed with 10 mg/kg xylazine administered by intraperitoneal injection. Thrombus formation was induced with FeCl3 in all groups of the VT mice except the first control group.
(§2) In mice undergoing FeCl3 treatment, thrombus formation was induced by applying a piece of filter paper (2×4 mm) pre-saturated with 10% FeCl3 solution directly on the vena cava. After 3 minutes of exposure, the filter paper was removed. Thirty minutes after the filter paper application, a fixed length of the vein containing the thrombus was dissected out for platelet analysis. Liver was collected for RNA analysis.
RNA was extracted from liver tissue for real-time RT-PCR analysis of Factor 7. Results are presented as percent inhibition of Factor 7, relative to PBS control.
ISIS 403102 and warfarin (Coumadin®) were evaluated in BALB/c mice. Four groups of BALB/c mice were treated with 5 mg/kg, 10 mg/kg, 20 mg/kg, or 40 mg/kg of ISIS 403102, administered subcutaneously twice a week for 3 weeks. Two days after receiving the last dose of ISIS 403102, mice were anesthetized with 150 mg/kg ketamine mixed with 10 mg/kg xylazine administered by intraperitoneal injection. A fifth group of BALB/c mice was treated with 3 mg/kg of warfarin, administered intraperioneally daily for 6 days. Four hours after the last dose of warfarin, mice were sacrificed. A control group of BALB/c mice were treated with PBS, administered subcutaneously twice a week for 3 weeks. Two days after the last dose of PBS, mice were anesthetized with 150 mg/kg ketamine mixed with 10 mg/kg xylazine administered by intraperitoneal injection. Thrombus formation was induced with FeCl3 in groups of mice except the first control group.

platelet factor-4 (PF-4) = experiment: Thrombus formation by real-time RT-PCR quantification of PF-4 in the FeCl3 induced venous thrombosis model; settings: Example 16; dose of 1 mg/kg and higher, intraperitoneally daily for 6 days
Protocol: as §1, §2
(§3) Real-time RT-PCR quantification of platelet factor-4 (PF-4) was used to quantify platelets in the vena cava as a measure of thrombus formation. Results are presented as a percentage of PF-4 in ISIS 403102, as compared to the two PBS-treated control groups. […] Therefore, antisense oligonucleotides are useful for inhibiting thrombus and clot formation.
ISIS 403102 and warfarin (Coumadin®) were evaluated in BALB/c mice. Four groups of BALB/c mice were treated with 5 mg/kg, 10 mg/kg, 20 mg/kg, or 40 mg/kg of ISIS 403102, administered subcutaneously twice a week for 3 weeks. Two days after receiving the last dose of ISIS 403102, mice were anesthetized with 150 mg/kg ketamine mixed with 10 mg/kg xylazine administered by intraperitoneal injection. Six additional groups of BALB/c mice was treated with 0.5 mg/kg, 1 mg/kg, 2 mg·kg, 3 mg/kg, 4 mg/kg, or 5 mg/kg of warfarin, administered intraperioneally daily for 6 days. Four hours after the last dose of warfarin, mice were sacrificed. A control group of BALB/c mice were treated with PBS, administered subcutaneously twice a week for 3 weeks. Two days after the last dose of PBS, mice were anesthetized with 150 mg/kg ketamine mixed with 10 mg/kg xylazine administered by intraperitoneal injection. Thrombus formation was induced with FeCl3 in groups of mice except the first control group.
as §3, with “403102 or warfarin treated mice,” for “403102,”, “Therefore, ISIS” for “Therefore,”

BALB/c mice = experiment: Tail bleeding assay; settings: Example 17; for Blood (g), tail bleeding: BALB/c mice, blood collected over 40 minutes
Protocol: (§4) Mice not receiving treatment with FeCl3 solution were evaluated in a tail bleeding chamber. Mice were placed into the bleeding chamber two days after the final treatment of ISIS 403102 or PBS. Mice were anesthetized in the chamber with isofluorane and a small piece of tail (approximately 4 mm from the tip) was cut with sterile scissors. The cut tail was immediately placed in a 15 mL Falcon tube filled with approximately 10 mL of 0.9% NaCl buffer solution warmed to 37° C. The blood was collected over the course of 40 minutes. The saline filled tubes were weighed both before and after bleeding.
Tail-bleeding was measured to observe whether treatment with ISIS 403102 or warfarin causes internal hemorrhage in mice. ISIS 403102 and warfarin (Coumadin®) were evaluated in the tail bleeding assay. Six groups of BALB/c mice were treated with 1.25 mg/kg, 2.5 mg/kg, 5 mg/kg, 10 mg/kg, 20 mg/kg, or 40 mg/kg of ISIS 403102, administered subcutaneously twice a week for 3 weeks. An additional 6 groups of BALB/c mice were treated with 0.5 mg/kg, 1 mg/kg, 2 mg/kg, 3 mg/kg, 4 mg/kg, and 5 mg/kg of warfarin, administered intraperioneally daily for 6 days. A separate control group of BALB/c mice was treated with PBS, administered subcutaneously twice a week for 3 weeks.
as §4, with “Two” for “Mice not receiving treatment with FeCl3 solution were evaluated in a tail bleeding chamber. Mice were placed into the bleeding chamber two”, “403102, warfarin,” for “403102”, “PBS, mice were placed in a tail bleeding chamber.” for “PBS.”
ISIS 403102 and Apixaban were evaluated in BALB/c mice. In a first group of BALB/c mice, 40 mg/kg of ISIS 403102 was administered subcutaneously twice a week for 3 weeks. An additional 3 groups of BALB/c mice were treated with 5 mg/kg and 10 mg/kg of Apixaban, administered in a single intraperitoneal dose, and 10 mg/kg of Apixaban administered as a single subcutaneous dose. A control group of BALB/c mice was treated with PBS, administered subcutaneously twice a week for 3 weeks.
as §4, with “Two” for “Mice not receiving treatment with FeCl3 solution were evaluated in a tail bleeding chamber. Mice were placed into the bleeding chamber two”, “PBS, mice were placed in a tail bleeding chamber. Mice from the groups treated with Apixaban were analyzed 30 minutes after the single dose.” for “PBS.”, “weighed” for “weighed both”

CC(=O)CC(c1ccccc1)c1c(O)c2ccccc2oc1=O (stereo not shown) [warfarin]
reduction of Factor 7 mRNA as compared to the PBS control (murine Factor 7 mRNA; 3 mg/kg intraperitoneally daily for 6 days): did not result in significant reduction of Factor 7
% inhibition of Factor 7 mRNA, relative to PBS control (murine Factor 7 mRNA; BALB/c mice liver, 3 mg/kg i.p. daily for 6 days, four hours after last dose): 10%
PF-4 in comparison to the PBS control (platelet factor-4 (PF-4)): reduction of PF-4
bleeding as compared to PBS control mice (BALB/c mice; 0.5-5 mg/kg intraperitoneally daily for 6 days): did increase bleeding
Blood (g), tail bleeding (BALB/c mice; 0.5 mg/kg i.p. daily for 6 days): 0.16 g
Blood (g), tail bleeding (BALB/c mice; 1 mg/kg i.p. daily for 6 days): 0.28 g
Blood (g), tail bleeding (BALB/c mice; 2 mg/kg i.p. daily for 6 days): 0.58 g
Blood (g), tail bleeding (BALB/c mice; 3 mg/kg i.p. daily for 6 days): 0.78 g
Blood (g), tail bleeding (BALB/c mice; 4 mg/kg i.p. daily for 6 days): 0.66 g
Blood (g), tail bleeding (BALB/c mice; 5 mg/kg i.p. daily for 6 days): 0.93 g
